In PubChem BioAssay AID256 (DTP/NCI, 2004) one finds T/C data, which are given here for 24 compounds.

This assay deals with CD2F1 mice, L1210 leukemia ip, survival T/C. Briefly: NCI In Vivo Anticancer Drug Screen. Data for tumor model L1210 Leukemia (intraperitoneal) in CD2F1 (CDF1) mice. Conditions: higher = longer survival. In a few lines: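 In this screen, transplantable tumors were grown in mice given either the compound or its vehicle. Results were expressed as the treated measurement relative to the control measurement.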

[1] abbreviates: endpoint: mean survival time, dose: 100.0 mg/kg/injection, schedule: Q04DX003 (ip), vehicle: saline with Tween-80.
Where [2] appears, read: endpoint: mean survival time, dose: 200.0 mg/kg/injection, schedule: Q04DX003 (ip), vehicle: saline with Tween-80.
[3] abbreviates: endpoint: mean survival time, dose: 400.0 mg/kg/injection, schedule: Q04DX003 (ip), vehicle: saline with Tween-80.
The mark [4] stands for this setting: endpoint: mean survival time, dose: 100.0 mg/kg/injection, schedule: Q04DX002 (ip), vehicle: saline.
The mark [5] stands for this setting: endpoint: mean survival time, dose: 12.5 mg/kg/injection, schedule: Q01DX009 (ip), vehicle: saline with Tween-80.
Setting [6] is: endpoint: mean survival time, dose: 50.0 mg/kg/injection, schedule: Q01DX001 (ip), vehicle: saline.
[7] abbreviates: endpoint: mean survival time, dose: 100.0 mg/kg/injection, schedule: Q01DX001 (ip), vehicle: saline.
Setting [8] is: endpoint: mean survival time, dose: 200.0 mg/kg/injection, schedule: Q01DX001 (ip), vehicle: saline.
Where [9] appears, read: endpoint: mean survival time, dose: 200.0 mg/kg/injection, schedule: Q04DX003 (ip), vehicle: saline.
The mark [10] stands for this setting: endpoint: mean survival time, dose: 400.0 mg/kg/injection, schedule: Q04DX003 (ip), vehicle: saline.
Setting [11] is: endpoint: mean survival time, dose: 100.0 mg/kg/injection, schedule: Q01DX009 (ip), vehicle: saline with Tween-80.
Setting [12] is: endpoint: mean survival time, dose: 400.0 mg/kg/injection, schedule: Q01DX009 (ip), vehicle: saline with Tween-80.
Setting [13] is: endpoint: mean survival time, dose: 25.0 mg/kg/injection, schedule: Q04DX002 (ip), vehicle: saline with Tween-80.
[14] abbreviates: endpoint: mean survival time, dose: 50.0 mg/kg/injection, schedule: Q04DX002 (ip), vehicle: saline with Tween-80.
The mark [15] stands for this setting: endpoint: mean survival time, dose: 100.0 mg/kg/injection, schedule: Q04DX002 (ip), vehicle: saline with Tween-80.

Structures are written as SMILES. “And” between values parts separate entries of the source, which are not always exact repeats. Identical values can stand only once. Inconclusive results and toxic doses are left out.

For `N#Cc1nc(N)nc2c1ncn2C1OC(CO)C(O)C1O` (stereo not drawn), the T/C is, setting by setting: (endpoint: median survival time, dose: 8.75 mg/kg/injection, schedule: Q01DX005 (ip), vehicle: distilled water + Tween-80) 100 % of control; (endpoint: median survival time, dose: 17.5 mg/kg/injection, schedule: Q01DX005 (ip), vehicle: distilled water + Tween-80) 107 % of control; (endpoint: median survival time, dose: 35.0 mg/kg/injection, schedule: Q01DX005 (ip), vehicle: distilled water + Tween-80) 100 % of control; (endpoint: median survival time, dose: 70.0 mg/kg/injection, schedule: Q01DX005 (ip), vehicle: distilled water + Tween-80) 100 % of control; (endpoint: median survival time, dose: 140.0 mg/kg/injection, schedule: Q01DX005 (ip), vehicle: distilled water + Tween-80) 101 % of control.
Take `COC1CC2C3CCC4(OC5CC(C)CN(C(C)=O)C5C4C)C(C)=C3C(=O)C2C2(C)CCC3CC312` (stereo not drawn): the T/C by setting is: under setting [1], 106 % of control; under setting [2], 101 % of control; under setting [3], 104 % of control.
As for `O=S(=O)(Nc1c(O)ccc2ccccc12)c1ccccc1`, the T/C is, setting by setting: under setting [1], 97 % of control; under setting [2], 97 % of control; under setting [3], 92 % of control.
With `O=NN(CCCl)C(=O)NC1CCCN(Cc2ccccc2)C1` (stereo not drawn), the T/C by setting is: (endpoint: mean survival time, dose: 6.25 mg/kg/injection, schedule: Q01DX001 (ip), vehicle: saline with Tween-80) 106 % of control; (endpoint: mean survival time, dose: 12.5 mg/kg/injection, schedule: Q01DX001 (ip), vehicle: saline with Tween-80) 115 % of control; (endpoint: mean survival time, dose: 50.0 mg/kg/injection, schedule: Q01DX001 (ip), vehicle: saline with Tween-80) 168 % of control; (endpoint: mean survival time, dose: 100.0 mg/kg/injection, schedule: Q01DX001 (ip), vehicle: saline with Tween-80) 340 % of control.
With `Nc1ccc(N)c(N)c1`, the T/C runs as follows: under setting [4], 97 % of control; (endpoint: mean survival time, dose: 200.0 mg/kg/injection, schedule: Q04DX002 (ip), vehicle: saline) 90 % of control; (endpoint: mean survival time, dose: 400.0 mg/kg/injection, schedule: Q04DX002 (ip), vehicle: saline) 97 % of control.
For `CCOC(=O)C(C)C(O)c1ccc(OC)cc1` (stereo not drawn), the T/C by setting is: under setting [5], 101 % of control; (endpoint: mean survival time, dose: 25.0 mg/kg/injection, schedule: Q01DX009 (ip), vehicle: saline with Tween-80) 101 % of control; (endpoint: mean survival time, dose: 50.0 mg/kg/injection, schedule: Q01DX009 (ip), vehicle: saline with Tween-80) 93 % of control.
`COc1cccc(/C=N/[N+](C)(C)C)c1O`: the T/C reads like this: under setting [6], 107 % of control; under setting [7], 101 % of control; under setting [8], 97 % of control.
Turning to `CC([NH-])C([NH-])O.O=[N+]([O-])O.O=[N+]([O-])O.[Pt+2]` (stereo not drawn), the T/C by setting is: (endpoint: mean survival time, dose: 12.5 mg/kg/injection, schedule: Q04DX003 (ip), vehicle: saline) 170 % of control; (endpoint: mean survival time, dose: 25.0 mg/kg/injection, schedule: Q04DX003 (ip), vehicle: saline) 158 % of control.
On to `COc1cc2cc3c4cc(OC)c(OC)cc4cc[n+]3c(C)c2cc1OC`, for which the T/C was 120 % of control under setting [7]; 122 % of control (endpoint: mean survival time, dose: 132.0 mg/kg/injection, schedule: Q04DX003 (ip), vehicle: saline sonified); 122 % of control under setting [8]; 114 % of control (endpoint: mean survival time, dose: 200.0 mg/kg/injection, schedule: Q04DX003 (ip), vehicle: saline sonified); 122 % of control under setting [9]; 123 % of control (endpoint: mean survival time, dose: 300.0 mg/kg/injection, schedule: Q04DX003 (ip), vehicle: saline sonified). Also, the T/C by setting is: (endpoint: mean survival time, dose: 400.0 mg/kg/injection, schedule: Q01DX001 (ip), vehicle: saline) 109 % of control; under setting [10], 116 % of control.
For the compound `O=S(=O)(c1cccc(N=C=S)c1)c1cccc(N=C=S)c1`, the T/C runs as follows: (endpoint: median survival time, dose: 6.25 mg/kg/injection, schedule: Q01DX009 (ip), vehicle: Klucel (hydroxypropylcellulose) (HPC)) 101 % of control; (endpoint: median survival time, dose: 12.5 mg/kg/injection, schedule: Q01DX009 (ip), vehicle: Klucel (hydroxypropylcellulose) (HPC)) 109 % of control; (endpoint: median survival time, dose: 25.0 mg/kg/injection, schedule: Q01DX009 (ip), vehicle: Klucel (hydroxypropylcellulose) (HPC)) 118 % of control.
`CCCCCCCCCCCCCCC(=O)O.[Pb]`: the T/C is 103 % of control (endpoint: mean survival time, dose: 75.0 mg/kg/injection, schedule: Q01DX001 (ip), vehicle: other); 103 % of control (endpoint: mean survival time, dose: 150.0 mg/kg/injection, schedule: Q01DX001 (ip), vehicle: other); 98 % of control (endpoint: mean survival time, dose: 300.0 mg/kg/injection, schedule: Q01DX001 (ip), vehicle: other).
Consider `O=C1C(n2ccc(=O)[nH]c2=O)CCN1CCO` (stereo not drawn), for which the T/C is 102 % of control (endpoint: mean survival time, dose: 100.0 mg/kg/injection, schedule: Q04DX003 (ip), vehicle: other); 102 % of control (endpoint: mean survival time, dose: 200.0 mg/kg/injection, schedule: Q04DX003 (ip), vehicle: other); 96 % of control (endpoint: mean survival time, dose: 400.0 mg/kg/injection, schedule: Q04DX003 (ip), vehicle: other).
Take `CCOC(=O)C(C(=O)OCC)C(=O)c1cccc2c1ccc1ccccc12`: the T/C reads like this: (endpoint: mean survival time, dose: 100.0 mg/kg/injection, schedule: Q01DX005 (ip), vehicle: saline with Tween-80) 95 % of control; under setting [11], 104 % of control; (endpoint: mean survival time, dose: 200.0 mg/kg/injection, schedule: Q01DX005 (ip), vehicle: saline with Tween-80) 95 % of control; (endpoint: mean survival time, dose: 200.0 mg/kg/injection, schedule: Q01DX009 (ip), vehicle: saline with Tween-80) 93 % of control; (endpoint: mean survival time, dose: 400.0 mg/kg/injection, schedule: Q01DX005 (ip), vehicle: saline with Tween-80) 95 % of control; under setting [12], 86 % of control.
As for `CC12CCC(/C(=C/NNc3ccc([N+](=O)[O-])cc3[N+](=O)[O-])C1=O)C2(C)C` (stereo not drawn), the T/C is, setting by setting: under setting [1], 93 % of control; under setting [2], 90 % of control; under setting [3], 96 % of control.
Turning to `CC([NH-])C(C)[NH-].[Cl][Pt+2][Cl]` (stereo not drawn), the T/C (endpoint: mean survival time, dose: 1.56 mg/kg/injection, schedule: Q04DX002 (ip), vehicle: Klucel (hydroxypropylcellulose) (HPC)) was 113 % of control; the T/C (endpoint: mean survival time, dose: 3.12 mg/kg/injection, schedule: Q04DX002 (ip), vehicle: Klucel (hydroxypropylcellulose) (HPC)) was 120 % of control; the T/C (endpoint: mean survival time, dose: 12.5 mg/kg/injection, schedule: Q04DX002 (ip), vehicle: Klucel (hydroxypropylcellulose) (HPC)) is 166 % of control; the T/C (endpoint: mean survival time, dose: 25.0 mg/kg/injection, schedule: Q04DX002 (ip), vehicle: Klucel (hydroxypropylcellulose) (HPC)) was 118 % of control and 120 % of control; the T/C (endpoint: mean survival time, dose: 50.0 mg/kg/injection, schedule: Q04DX002 (ip), vehicle: Klucel (hydroxypropylcellulose) (HPC)) is 89 % of control.
Consider `CCC(=O)c1cc(OC)cc(OC)c1`, for which the T/C is 100 % of control (endpoint: mean survival time, dose: 100.0 mg/kg/injection, schedule: Q04DX003 (ip), vehicle: saline); 101 % of control under setting [9]; 103 % of control under setting [10].
For `COC(CNCCO)c1ccccc1` (stereo not drawn), the T/C reads like this: (endpoint: mean survival time, dose: 25.0 mg/kg/injection, schedule: Q01DX001 (ip), vehicle: saline) 97 % of control; under setting [6], 101 % of control; under setting [7], 100 % of control and 106 % of control.
`c1ccc(C(c2ccccc2)c2ccccc2)cc1`: the T/C is 97 % of control under setting [1] and 98 % of control under setting [2].
As to `Cc1cc(N(CCOS(C)(=O)=O)CCOS(C)(=O)=O)ccc1C=Nc1ccc(-c2csc(Cc3ccccc3)n2)cc1`, the T/C is, setting by setting: (endpoint: mean survival time, dose: 6.25 mg/kg/injection, schedule: Q01DX009 (ip), vehicle: saline with Tween-80) 102 % of control; under setting [5], 105 % of control.
For `C=CCN1C(=O)C=CC1=O`, the T/C was 95 % of control under setting [13], 91 % of control under setting [14] and 88 % of control under setting [15].
The corresponding values for `C[P+]1(c2ccccc2)CCC(N)=C(C#N)C1` (stereo not drawn) are 97 % of control, 101 % of control and 101 % of control.
On to `CCOc1cc(C(F)(F)F)nc2c3c(cc(OC)c12)CCCN3CC`, for which the T/C is, setting by setting: under setting [11], 98 % of control; under setting [12], 90 % of control.
For `O=C(O)C(=O)O.[Co].[NH-]CC[NH-].[NH-]CC[NH-]`, the T/C under setting [4] is 98 % of control.
For `C=[CH][Pb]([CH]=C)([O]C(=O)C(C)C)[O]C(=O)C(C)C`, the T/C was 93 % of control (endpoint: mean survival time, dose: 5.0 mg/kg/injection, schedule: Q01DX009 (ip), vehicle: saline with Tween-80) and 95 % of control (endpoint: mean survival time, dose: 10.0 mg/kg/injection, schedule: Q01DX009 (ip), vehicle: saline with Tween-80).
